≈ marks a conversion by molar mass, not a printed value.
Columns and labels:
Vero = test: Cytotoxicity against African green monkey Vero cells by CellTiter 96 aqueous nonradioactive cell proliferation assay; type: cell-based; settings: Chlorocebus sabaeus
[1] = system: Mycobacterium tuberculosis; test: Antitubercular activity against Mycobacterium tuberculosis H37Rv ATCC 27294 incubated for 1 week by MABA; type: functional; settings: H37Rv ATCC 27294, 168 h
[2] = system: Mycobacterium tuberculosis; test: Antitubercular activity against Mycobacterium tuberculosis H37Rv; type: functional

SMILES	IC50 (Vero)	MIC90 [1]	MIC [2]
CO[C@H]1/C=C/O[C@@]2(C)Oc3c(C)c(O)c4c(O)c(c(/C=N/N5CCN(C)CC5)c(O)c4c3C2=O)NC(=O)/C(C)=C\C=C\[C@H](C)[C@H](O)[C@@H](C)[C@@H](O)[C@@H](C)[C@H](OC(C)=O)[C@@H]1C [RIFAMPIN]	97.4 µg/mL (≈ 118 µM)	0.05 µg/mL (≈ 0.0608 µM)	–
O=C1c2ccccc2-n2c1nc1ccccc1c2=O [TRYPTANTHRIN]	> 100 µg/mL	7.59 µg/mL (≈ 30.6 µM)	1 µg/mL (≈ 4.03 µM)
